Data reported in patent publication US9303009B2, “Migrastatins and uses thereof” (Sloan-Kettering Institute for Cancer Research, priority 2011, dated 2016).

What was measured:
H299 = experiment: transwell migration (modified Boyden chamber, serum gradient); format: cell-based; details: Homo sapiens, 12 hour migration, mean +/- SEM of three experiments, read-out: IC50, inhibition of transwell migration
Method: (§1) Migration assay: Cancer cell chemotaxis was performed towards a serum gradient in a modified Boyden chamber consisting of a cell culture insert (6.4 mm diameter, 8-μm pore polyethylene tetraphtalate membrane, [Becton Dickenson]) seated in each well of a 24-well companion plate (Becton Dickinson). Briefly, cancer cells were grown as subconfluent monolayer cultures then starved for 36 hours in serum-free M5 medium. After detachment and dissociation with 5 mM EDTA, single-cell suspensions were prepared by filtration through a 35 μm mesh cell strainer (Becton Dickinson). Cells were counted and a total of 10^5 cells suspended in serum-free medium were seeded into the upper chamber of an insert, then positioned in a 24-well plate, containing medium with or without 10% serum. When used, drugs or DMSO (vehicle) were added to the medium at 0.2% in both chambers. Migration assays were carried out for 12 hours in a humidified incubator at 37° C. with 5% CO2. Cells were then fixed with 3.7% formaldehyde, permeabilized with ice cold methanol and stained with a 0.2% Crystal violet solution. Non-migratory cells on the upper side of the insert were removed with a cotton swab. For quantification, three randomly selected fields on the lower side of the insert were photographed at 4× and 20× magnification using computer-assisted microscopy, and analyzed with CellProfiler2.0 cell image analysis software). The migration in response to the test condition was calculated relative to the DMSO vehicle control.
(§2) This assay provided reproducibly robust data, allowing dose-response studies to be carried out to determine the half maximal inhibitory concentration (IC50). […] Because we noticed a mild toxicity and effects on cell proliferation in the millimolar range, experiments with CME and ME at 1 mM or more were not included for the IC50 calculation.
(§3) Lung Cancer cell lines chemotaxis was performed in cell culture inserts after serum starvation and an overnight preincubation with an incremental logarithmic scale of drug concentration (ME and CME from 10^−3 to 10^−10M). Cancer cell migration in response to a serum gradient was measured after a 12 hour-long incubation in presence of different concentrations of ME or CME in both upper and lower chamber (three wells at each dose). Cells were then fixed and stained with Crystal violet, and photographed. […] Data are expressed as the mean+/−SEM of three independent experiments. Each experiment was performed in triplicate.

A549 = experiment: as above; format: cell-based; details: Homo sapiens, 12 hour migration, mean +/- SEM of three experiments, read-out: IC50, inhibition of transwell migration
Method: as §1, §2, §3

[1] = test system: A549, H1975, and H299 cancer cells; experiment: transwell migration, panel of NSCLC lines; format: cell-based, human; details: for IC50: Homo sapiens, range over A549, H1975 and H299, read-out: IC50 values across cell lines; for toxicity and effects on cell proliferation: in the millimolar range
Method: as §1, §2, §3

AC3-TGL cells = experiment: human SCLC xenograft model, Example 17; format: in vivo; details: for tumor growth kinetics at the primary site of injection: all doses
Method: Evaluation of the anti-metastatic activity of ME (19) and CME (25) in a human SCLC xenograft model. These cells, in primary and subsequent in vivo passages in NOD/SCID mice, tend to form liver metastases. The tumor cells were stably transduced with a triple-fusion protein reporter construct (AC3-TGL), and then transplanted by subcutaneous injection with matrigel into NOD/SCID IL2R gamma null (NSG) mice.
Starting 1 day prior to the inoculation of tumor cells, groups of mice were treated with ME at doses of 10 mg/kg, 40 mg/kg, or 200 mg/kg, or with CME at 12 mg/kg or 49 mg/kg (note: dosage levels were adjusted to account for differences in molecular weight: 1 mg ME=1.2 mg CME). Control mice were treated with DMSO vehicle. The compounds were administered by i.p. injection every three days, from Day −1 to Day 55 following cell injection (n≧5 mice per group). During this time, tumor burden and metastatic spread were monitored by serial non-invasive bioluminescent imaging (BLI) at Days 14, 23, 30, 40, and 50. At Day 55, the mice were sacrificed and the metastatic spread of tumor cells to the lungs, liver, heart, kidneys, and spleen was assessed by ex-vivo BLI on the removed organs.
For the results depicted in FIGS. 7a-b: AC3-TGL cells were transplanted by subcutaneous ventral injection into NSG mice. Xenografted mice were treated with indicated dosages of CME or ME every 3 days starting 1 day prior to the inoculation of tumor cells: ME 10 mg/kg (ME10, n=5), 40 mg/kg (ME40, n=5), 200 mg/kg (ME200, n=5), CME 12 mg/kg (CME12, n=5), 49 mg/kg (CME49, n=5) and DMSO vehicle (control, n=6). At day 55, the mice were sacrificed. Three mice in the ME200 group died before the end of treatment. Tumor metastasis at endpoint: At day 55, mice were analyzed for metastasis by ex vivo BLI quantifying luciferase activity in the excised lungs, (Lu), liver (Li), heard (H), kidneys (K), and the spleen (S). Measurements for each mouse are presented in FIG. 7a (circles), with the average per group (short line) and expressed as photon flux (flux in photon/sec) in log scale. P-values were obtained using two-tailed Mann-Whitney U-test. Each picture is presented with the same settings (4 min exposure, photon signal, color scale from 3.10^4 (min) to 5.10^6 (max)).
Xenograft Model for Example 17: A human primary SCLC xenograft model was developed in 10-14 weeks old male NSG mice. Primary tumor samples were obtained after patient informed consent under an MSKCC IRB approved protocol. AC3-TGL tumor cells growing as clumps were dissociated into a single-cell suspension by Trypsin/Collagenase IV (Invitrogen) sequential treatment. Xenografts were performed by subcutaneous ventral injection of 500 AC3-TGL cells in serum-free medium mixed with Matrigel (Becton Dickinson).
One day prior to the tumor cell injection, mice were pretreated with either: (1) Migrastatin Ether (ME) at a dose of 10 mg/kg, 40 mg/kg or 200 mg/kg per mouse; (2) Carboxymethyl-ME (CME) at a dose of 12 mg/kg or 49 mg/kg; or (3) DMSO vehicle control (n≧5 mice per group). Drug treatment was delivered by intraperitoneal injection every 3 days starting from day −1 after cell injection to day 55. During this time, the tumor burden and metastatic spread were monitored by bioluminescence imaging (BLI) at day 14, 23, 30, 40, and 50. At day 55 (endpoint), the mice were killed and the metastatic spread of tumor cells to the lungs, liver, heart, kidneys, and spleen was assessed by ex-vivo BLI on the surgically resected organs.

SMILES | IC50 (H299) [µM] | IC50 (A549) [µM] | IC50 [1] [µM] | toxicity and effects on cell proliferation [1] | deaths prior to the study endpoint (AC3-TGL cells; 10 mg/kg group) [mice] | Inhibition factor (IF) of overall metastasis (AC3-TGL cells; 10 mg/kg i.p. every 3 days, day 55) [%] | deaths prior to the study endpoint (AC3-TGL cells; 40 mg/kg group) [mice] | Inhibition factor (IF) of overall metastasis (AC3-TGL cells; 40 mg/kg i.p. every 3 days, day 55) [%] | deaths prior to the study endpoint (AC3-TGL cells; 200 mg/kg group) [mice] | Inhibition factor (IF) of overall metastasis (AC3-TGL cells; 200 mg/kg i.p. every 3 days, day 55, 2 surviving mice) [%] | tumor growth kinetics at the primary site of injection (AC3-TGL cells) | Inhibition factor (IF) of overall metastasis (AC3-TGL cells; 12 mg/kg i.p. every 3 days, day 55) [%] | toxicity (AC3-TGL cells; 12 mg/kg or 49 mg/kg cohorts) | Inhibition factor (IF) of overall metastasis (AC3-TGL cells; 49 mg/kg i.p. every 3 days, day 55) [%] | potency relative to ME in inhibiting in vivo metastasis (AC3-TGL cells; at the lowest dosage level)
CO[C@H]1/C=C/CCCCCOC/C(C)=C\[C@@H](C)[C@@H]1O [ME, migrastatin ether] | 8.2 ± 1.75 | 1.93 ± 0.41 | 1.5 to 8.2 | mild toxicity | 2 | 96.2 | 2 | 99.1 | 3 | 99.8 | did not significantly affect | – | – | – | –
CO[C@H]1/C=C/CCCCCOC/C(C)=C\[C@@H](C)[C@@H]1OCC(=O)O [CME, Carboxymethyl migraether] | 5.02 ± 1.13 | 0.66 ± 0.2 | 0.5 to 5 | mild toxicity | – | – | – | – | – | – | did not significantly affect | 99.3 | no toxicity was observed | 99.8 | approximately 4 times
